Paper PMC6728800, “Effect of piceatannol-rich passion fruit seed extract on human glyoxalase I–mediated cancer cell growth” (Biochemistry and Biophysics Reports, 2019)
Where two headings read alike, the source gives them in different places.

Target: T1, human glyoxalase I (GLO I) (Homo sapiens, UniProt Q04760)
T1 construct: gene GLO1; recombinant GLO I
T1 sequence (Q04760 2-184): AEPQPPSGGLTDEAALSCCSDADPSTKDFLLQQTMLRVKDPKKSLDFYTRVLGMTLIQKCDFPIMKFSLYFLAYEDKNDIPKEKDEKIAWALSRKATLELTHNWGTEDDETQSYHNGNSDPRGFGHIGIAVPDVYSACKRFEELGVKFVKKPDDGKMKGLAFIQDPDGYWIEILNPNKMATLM
Test: spectrophotometric assay of S-D-lactoylglutathione formation at […] nm with recombinant GLO I
Format: biochemical

Compound	IC50 [nM]	IC50 (read-out: IC50) [nM]
Oc1cc(O)cc(/C=C/c2ccc(O)c(O)c2)c1 [piceatannol]	750	
Oc1cc(O)cc(C2c3c(/C=C/c4ccc(O)c(O)c4)cc(O)cc3OC2c2ccc(O)c(O)c2)c1 (centres unmarked) [scirpusin B]		4200
